According to patent US12534748B2, “Engineered beta-subunit of tryptophan synthase for production of non-canonical amino acids” (California Institute of Technology, priority 2015, dated 2026):
Where a chain is given by its changes, count along the chain named.

What was measured:
[1] = biological target: T1, Pyrococcus furiosus TrpB variant PfTrpB^4D11 (E17G, I68V, T292S, F274S, T321A), SEQ ID NO: 16 (Pyrococcus furiosus, UniProt Q8U093, E17G/F274S/I68V/T292S/T321A); assay: Tryptophan formation from L-serine and indole, kinetics of PfTrpB^4D11; assay type: biochemical; details: 75° C.
T1 sequence (Q8U093 with tags, fused parts or gaps E17G/I68V/F274S/T292S/T321A): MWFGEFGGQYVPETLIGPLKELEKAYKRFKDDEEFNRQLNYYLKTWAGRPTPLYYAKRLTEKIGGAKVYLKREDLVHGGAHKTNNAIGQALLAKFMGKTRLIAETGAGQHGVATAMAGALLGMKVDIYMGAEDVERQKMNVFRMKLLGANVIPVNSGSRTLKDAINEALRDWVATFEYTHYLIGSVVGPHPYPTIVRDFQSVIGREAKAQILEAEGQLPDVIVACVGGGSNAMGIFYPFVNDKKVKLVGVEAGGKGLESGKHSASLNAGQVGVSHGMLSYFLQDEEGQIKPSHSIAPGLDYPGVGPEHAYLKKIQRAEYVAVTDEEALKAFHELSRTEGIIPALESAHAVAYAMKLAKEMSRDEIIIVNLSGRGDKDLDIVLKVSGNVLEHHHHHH
Protocol: Cloning, Expression, and Purification of PfTrpA and PfTrpB. The genes encoding PfTrpB (UNIPROT ID Q8U093) and PfTrpA (UNIPROT ID Q8U094) were obtained as gBlocks and cloned into pET22(b)+ for expression in E. coli BL21 E. cloni EXPRESS cells (Lucigen). Heterologous protein expression of PfTrpA and PfTrpB was performed in Terrific Broth with 100 μg/mL ampicillin (TBamp) and induced with 500 mM IPTG (final concentration 1 mM). PfTrpB was purified via a HisTrap HP column. PfTrpA was purified via a Q HP HiTrap column (flow-through), followed by ammonium sulfate precipitation, and hydrophobic interaction chromatography on a phenyl Sepharose HP HiTrap column (FIG. 3).
Kinetics and UV-Vis Spectroscopy.
PfTrpB^4D11 served as template for a final round of random mutagenesis, for which 1,144 clones were screened.

[2] = biological target: T2, Pyrococcus furiosus TrpB variant M144T N166D (Table 6 prints N166T), SEQ ID NO: 20 (Pyrococcus furiosus, UniProt Q8U093, M144T/N166D); assay: Tryptophan formation from L-serine and indole, kinetics of PfTrpB double mutant
T2 sequence (Q8U093 with tags, fused parts or gaps M144T/N166D): T1 sequence (Q8U093 with tags, fused parts or gaps E17G/I68V/F274S/T292S/T321A) with G17E, V68I, M144T, N166D, S274F, S292T, A321T
Protocol: Data were collected between 550 and 250 nm on a UV1800 Shimadzu spectrophotometer (Shimadzu) using 0.25-20 μM of enzyme in 200 mM potassium phosphate (pH 8.0) in a quartz cuvette. Samples were incubated at 75° C. for >3 min to ensure a stable temperature was reached. PfTrpB activity (kcat) was measured by monitoring tryptophan formation at 290 nm using Δe290=1.89 mM^−1·cm^−1.

`c1ccc2[nH]ccc2c1` [indole] was tested, and the kcat [1] was 2.2 s⁻¹, the Km ([1]; read-out: KM, indole) was 11 µM and the kcat ([2]; 75° C.) was 0.83 s⁻¹. For the same compound, the kcat increase ([2]; M144T and N166D in PfTrpB) was “at least 2 fold”.
